Structures are written as SMILES. Some results are limits rather than exact numbers.

For one data set, the system named is Vero E6 cells.
Test: not given
Particulars: African green monkey.
The compound `OC[C@H]1O[C@@H](n2cnc3c(N[C@@H]4CCOC4)ncnc32)[C@H](O)[C@@H]1O` [Tecadenoson, tecadenoson] registered a CC50 of over 100 µM.

`CC(C)C(=O)OC[C@H]1O[C@@H](n2ccc(NO)nc2=O)[C@H](O)[C@@H]1O` [Molnupiravir, molnupiravir]: the CC50 was over 100 µM.

The compound `Nc1ncnc2c1ncn2[C@@H]1O[C@H](CO)[C@@H](O)[C@@H]1O` [Vidarabine, Arabinosyladenine] returned a CC50 of over 100 µM.

`O=c1[nH]cnc2c([C@@H]3N[C@H](CO)[C@@H](O)[C@H]3O)c[nH]c12` [Forodesine, forodesine] showed a CC50 of over 100 µM.

For `CC(C)Nc1nc2cc(Cl)c(Cl)cc2n1[C@H]1O[C@@H](CO)[C@H](O)[C@@H]1O` [Maribavir, maribavir], the CC50 was over 100 µM.

`CC(C)=CCNc1ncnc2c1ncn2[C@@H]1O[C@H](CO)[C@@H](O)[C@H]1O` [Riboprine, N^6-(2-Isopentenyl)adenosine] returned a CC50 of over 100 µM.

As to `COc1nc(N)nc2c1ncn2[C@@H]1O[C@H](CO)[C@@H](O)[C@@H]1O` [Nelarabine, nelarabine], the CC50 is over 100 µM.

System in another data set: not listed separately
Briefly: in vitro. Particulars: African green monkey.
Compound `CCC(CC)COC(=O)[C@H](C)N[P@](=O)(OC[C@H]1O[C@@](C#N)(c2ccc3c(N)ncnn23)[C@H](O)[C@@H]1O)Oc1ccccc1` [Remdesivir, remdesivir] gave a CC50 of over 100 µM.

Source of the values: PMC9797896 (Medicinal Chemistry Research, 2022).
